# Results: patent US5703129A, “5-amino-6-cyclohexyl-4-hydroxy-hexanamide derivatives as inhibitors of β-amyloid protein production” (Bristol-Myers Squibb Company, priority 1996, dated 1997)
# Where a name gives a salt, the structure may show the parent alone.
# Target: T1, γ-Secretase (Homo sapiens, UniProt P49768)
# T1 construct: transfected H4 (human neuroglioma) cells stably expressing constructs containing wild-type and mutant forms of β-APP; endogenous in cells; host or cells: H4 human neuroglioma cells, stably transfected with beta-APP (the substrate, not the enzyme)
# Test: Inhibition of γ-secretase: ELISA of β-AP made by transfected H4 cells in culture
# Format: cell-based
# Conditions: H4 (human neuroglioma) cells expressing β-APP (Swedish variant typically), approximately 16 hours incubation, β-AP in conditioned medium by ELISA
# From the text: Production and detection of β-AP made by cells in culture. The use of transfected H4 (human neuroglioma) cells stably expressing constructs containing wild-type and mutant forms of β-APP have been used to identify inhibitors of β-AP production. The Swedish variant of β-APP produces 5-7 fold more β-AP than the wild type and is typically used due to its enhanced signal. […] The capture antibody is typically a mouse monoclonal (IgG1/kβ-APPa). The antibody recognizes the carboxyl terminal epitope of β-AP. The specificity of the capture antibody ensures measurement of β-AP without interference by other secreted β-APP fragments that share amino acid sequence (β-AP1-16) with β-AP. The detecting antibody is typically an affinity purified rabbit polyclonal antibody, specific for the amino terminus of β-AP. In the cell-based assay conditioned medium from H4 cells is tested by ELISA for the quantity of β-AP present. The cell-based assay can be used to identify compounds that inhibit β-AP production. The assay should detect agents that inhibit cleavage at the β-secretase and/or the γ-secretase cleavage site as well as detecting any agent that interferes with the production and/or release of β-AP.
# A typical ELISA-based assay requires plating of the transfected cells at a density sufficient for the rapid detection of the secreted β-AP (experimentally predetermined for a particular stable cell population) in a 96-well format. Cells are plated for at least six hours prior to the introduction of the test compound at which time the growth medium is replaced by fresh medium containing the agent to be tested. Test agents may typically consist of synthetic compounds, secondary metabolites from bacterial or fungal fermentation extracts, or extracts from plant or marine samples. All synthetic agents are initially screened at doses ranging from 10-100 μM or in the case of extracts at sufficient dilution to minimize cytotoxicity. Incubation of the cells with the test agent will continue for approximately 16 hours at which time equal aliquots of media from each sample well is removed and placed into a previously prepared ELISA plate for β-AP quantitation. The ELISA is carried out in a manner described by others (Haass, et al., 1992; Hawlow and Lane, 1988) and the β-AP signal quantitated. Results are obtained by analysis of the ELISA plate following development and comparison to the mock treated cell populations and samples in which known amounts of β-AP were added to construct a standard concentration curve. […] If a compound is found to be active, then a dose response experiment is performed to determine the lowest dose of compound necessary to elicit the inhibition of the production of β-AP.
row,Structure (SMILES),Activity Rating (Inhibition of γ-Secretase)
1,"CC(C)CNC(=O)[C@@H](C[C@H](O)[C@H](CC1CCCCC1)NC1CCC(C)C1)C(C)C (relative stereo) [Example 43, [αS(αR*,γR*,δR*)]-γ-Hydroxy-δ-[(3-methylcyclopentyl)amino]-α-(1-methylethyl)-N-(2-methylpropyl)cyclohexanehexanamide]",+++ (+++ < = 10)
2,"CCCCNC(=O)[C@@H](C[C@H](O)[C@H](CC1CCCCC1)NC1CCC(C(C)C)CC1)C(C)C (relative stereo) [Example 44, [αS(αR*,γR*,δR*)]-N-butyl-γ-hydroxy-α-(1-methylethyl)-δ-[[4-(1-methylethyl)cyclohexyl]amino]cyclohexanehexanamide hydrochloride]",+++ (+++ < = 10)
3,"CCCCCN[C@@H](CC1CCCCC1)[C@@H](O)C[C@H](C(=O)NCCCC)C(C)C (relative stereo) [Example 45, [αS(αR*,γR*,δR*)]-N-Butyl-γ-hydroxy-α-(1-methylethyl)-δ-(pentylamino)cyclohexanehexanamide hydrochloride]",+++ (+++ < = 10)
4,"CCCCNC(=O)[C@@H](C[C@H](O)[C@H](CC1CCCCC1)NCCCC1CC1)C(C)C (relative stereo) [Example 46, [αS(αR*,γR*,δR*)]-N-Butyl-δ-[(3-cyclopropyl)propyl]amino-γ-hydroxy-α-(1-methylethyl)cyclohexanehexanamide hydrochloride]",+++ (+++ < = 10)

# Next, values leading:
row,Activity Rating (Inhibition of γ-Secretase),Structure (SMILES)
1,+++ (+++ < = 10),"CCCCNC(=O)[C@@H](C[C@H](O)[C@H](CC1CCCCC1)NCCCC1CCCC1)C(C)C (relative stereo) [Example 47, [αS(αR*,γR*,δR*)]-N-Butyl-δ-[(3-cyclopentyl)propyl]amino-γ-hydroxy-α-(1-methylethyl)cyclohexanehexanamide hydrochloride]"
2,+++ (+++ < = 10),"CCCCNC(=O)[C@@H](C[C@H](O)[C@H](CC1CCCCC1)NCCC1CCCCC1)C(C)C (relative stereo) [Example 48, [αS(αR*,γR*,δR*)]-N-Butyl-δ-[(3-cyclohexyl)ethyl]amino-γ-hydroxy-α-(1-methylethyl)cyclohexanehexanamide hydrochloride]"
3,+++ (+++ < = 10),"CC(C)=CCCN[C@@H](CC1CCCCC1)[C@@H](O)C[C@H](C(=O)NCC(C)C)C(C)C (relative stereo) [Example 49, [αS(αR*,γR*,δR*)]-γ-hydroxy-α-(1-methylethyl)-δ-[(4-methyl-3-pentenyl)amino]-N -(2-methylpropyl)cyclohexanehexanamide]"
